Experimental data published in ChEMBL document CHEMBL3627608, “Crystal structures of human RIP2 kinase catalytic domain complexed with ATP-competitive inhibitors: Foundations for understanding inhibitor selectivity” (Bioorg Med Chem, 2015).

Key:
[1] = target: Serine/threonine-protein kinase PAK 3 (Homo sapiens) (UniProt O75914); experiment: Inhibition of PAK3 (unknown origin) at 10 uM after 120 mins P33 radiolabeled kinase activity assay
[2] = target: T1, Rhodopsin kinase GRK1 (Homo sapiens) (UniProt Q15835); experiment: Inhibition of GRK1 (unknown origin) at 10 uM after 120 mins P33 radiolabeled kinase activity assay
T1 sequence (whole entry): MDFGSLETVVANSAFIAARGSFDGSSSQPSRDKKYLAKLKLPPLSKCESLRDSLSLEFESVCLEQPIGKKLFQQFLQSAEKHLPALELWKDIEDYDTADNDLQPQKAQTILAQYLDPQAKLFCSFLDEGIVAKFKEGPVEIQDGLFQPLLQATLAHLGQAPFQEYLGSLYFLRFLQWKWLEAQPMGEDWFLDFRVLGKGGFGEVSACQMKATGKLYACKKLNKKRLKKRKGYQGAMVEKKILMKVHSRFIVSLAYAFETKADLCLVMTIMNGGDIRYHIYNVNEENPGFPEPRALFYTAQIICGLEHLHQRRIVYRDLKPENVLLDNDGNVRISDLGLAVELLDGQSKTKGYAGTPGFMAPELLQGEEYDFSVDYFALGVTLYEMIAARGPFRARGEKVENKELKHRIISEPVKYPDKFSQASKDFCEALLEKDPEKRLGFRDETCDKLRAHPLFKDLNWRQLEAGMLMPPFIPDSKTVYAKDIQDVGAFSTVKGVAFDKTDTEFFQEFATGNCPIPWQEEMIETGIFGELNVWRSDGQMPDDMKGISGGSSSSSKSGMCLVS

[3] = target: T2, Ephrin type-A receptor 3 (Homo sapiens) (UniProt P29320); experiment: Inhibition of EPHA3 (unknown origin) at 10 uM after 120 mins P33 radiolabeled kinase activity assay
T2 sequence (whole entry): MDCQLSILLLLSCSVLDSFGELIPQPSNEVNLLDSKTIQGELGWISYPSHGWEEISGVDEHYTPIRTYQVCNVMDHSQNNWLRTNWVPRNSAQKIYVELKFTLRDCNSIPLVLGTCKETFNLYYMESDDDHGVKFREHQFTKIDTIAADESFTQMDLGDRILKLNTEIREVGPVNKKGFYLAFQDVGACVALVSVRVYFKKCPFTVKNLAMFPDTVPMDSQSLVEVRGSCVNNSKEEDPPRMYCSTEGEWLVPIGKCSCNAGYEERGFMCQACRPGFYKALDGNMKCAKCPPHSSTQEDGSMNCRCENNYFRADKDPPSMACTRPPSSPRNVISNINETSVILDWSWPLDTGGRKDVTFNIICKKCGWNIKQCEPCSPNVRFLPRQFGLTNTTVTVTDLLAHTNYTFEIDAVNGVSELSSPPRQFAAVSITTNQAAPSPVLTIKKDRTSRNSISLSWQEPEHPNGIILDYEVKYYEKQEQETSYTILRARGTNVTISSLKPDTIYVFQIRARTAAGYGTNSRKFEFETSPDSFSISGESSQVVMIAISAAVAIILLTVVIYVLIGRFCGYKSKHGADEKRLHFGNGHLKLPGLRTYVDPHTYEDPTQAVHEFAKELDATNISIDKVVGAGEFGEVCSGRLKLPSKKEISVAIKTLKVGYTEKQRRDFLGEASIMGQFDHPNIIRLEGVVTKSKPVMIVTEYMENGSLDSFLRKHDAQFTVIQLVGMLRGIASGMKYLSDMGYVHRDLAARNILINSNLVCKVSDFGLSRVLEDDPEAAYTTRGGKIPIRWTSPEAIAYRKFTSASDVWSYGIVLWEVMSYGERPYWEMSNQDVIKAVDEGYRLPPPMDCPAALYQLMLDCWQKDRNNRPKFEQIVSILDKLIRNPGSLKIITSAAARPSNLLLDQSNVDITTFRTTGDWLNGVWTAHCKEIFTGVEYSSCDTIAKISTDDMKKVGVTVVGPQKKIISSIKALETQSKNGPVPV

[4] = target: Mitogen-activated protein kinase 8 (Homo sapiens) (UniProt P45983); experiment: Inhibition of JNK1 (unknown origin) at 10 uM after 120 mins P33 radiolabeled kinase activity assay
[5] = target: Serine/threonine-protein kinase PAK 5 (Homo sapiens) (UniProt Q9P286); experiment: Inhibition of PAK5 (unknown origin) at 10 uM after 120 mins P33 radiolabeled kinase activity assay
[6] = target: T3, Dual specificity tyrosine-phosphorylation-regulated kinase 3 (Homo sapiens) (UniProt O43781); experiment: Inhibition of DYRK3 (unknown origin) at 10 uM after 120 mins P33 radiolabeled kinase activity assay
T3 sequence (whole entry): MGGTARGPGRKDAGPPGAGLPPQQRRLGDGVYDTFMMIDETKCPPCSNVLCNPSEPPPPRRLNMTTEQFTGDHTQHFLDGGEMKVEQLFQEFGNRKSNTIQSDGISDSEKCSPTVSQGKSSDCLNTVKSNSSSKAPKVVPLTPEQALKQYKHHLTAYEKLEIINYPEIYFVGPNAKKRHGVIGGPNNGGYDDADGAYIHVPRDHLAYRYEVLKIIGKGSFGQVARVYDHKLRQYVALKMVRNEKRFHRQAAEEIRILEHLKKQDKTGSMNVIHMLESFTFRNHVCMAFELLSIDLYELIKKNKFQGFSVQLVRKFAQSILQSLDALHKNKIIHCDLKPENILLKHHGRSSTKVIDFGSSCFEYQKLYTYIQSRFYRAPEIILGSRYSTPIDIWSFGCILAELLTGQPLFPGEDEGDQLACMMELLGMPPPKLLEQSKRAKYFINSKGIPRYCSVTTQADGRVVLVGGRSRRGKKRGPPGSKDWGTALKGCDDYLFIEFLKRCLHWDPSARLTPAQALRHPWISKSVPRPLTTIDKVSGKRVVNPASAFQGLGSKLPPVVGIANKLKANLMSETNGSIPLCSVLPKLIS

Homo sapiens = organism: Homo sapiens; experiment: Inhibition of PKCbeta1 (unknown origin) at 10 uM after 120 mins P33 radiolabeled kinase activity assay

Mitogen-activated protein kinase 8 (Homo sapiens), sequence (P45983 whole entry): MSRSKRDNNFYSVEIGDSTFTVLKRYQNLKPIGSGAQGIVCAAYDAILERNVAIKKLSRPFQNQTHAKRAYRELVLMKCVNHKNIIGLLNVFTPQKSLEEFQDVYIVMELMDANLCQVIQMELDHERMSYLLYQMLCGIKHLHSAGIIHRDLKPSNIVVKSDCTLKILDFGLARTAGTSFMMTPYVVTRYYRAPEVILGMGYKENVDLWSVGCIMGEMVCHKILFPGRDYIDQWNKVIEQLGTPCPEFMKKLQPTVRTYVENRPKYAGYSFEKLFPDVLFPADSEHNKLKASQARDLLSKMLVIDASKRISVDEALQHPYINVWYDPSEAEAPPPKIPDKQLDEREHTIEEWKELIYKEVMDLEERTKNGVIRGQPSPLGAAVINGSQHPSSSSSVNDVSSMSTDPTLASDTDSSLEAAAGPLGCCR
Serine/threonine-protein kinase PAK 3 (Homo sapiens), sequence (O75914 whole entry, looked up): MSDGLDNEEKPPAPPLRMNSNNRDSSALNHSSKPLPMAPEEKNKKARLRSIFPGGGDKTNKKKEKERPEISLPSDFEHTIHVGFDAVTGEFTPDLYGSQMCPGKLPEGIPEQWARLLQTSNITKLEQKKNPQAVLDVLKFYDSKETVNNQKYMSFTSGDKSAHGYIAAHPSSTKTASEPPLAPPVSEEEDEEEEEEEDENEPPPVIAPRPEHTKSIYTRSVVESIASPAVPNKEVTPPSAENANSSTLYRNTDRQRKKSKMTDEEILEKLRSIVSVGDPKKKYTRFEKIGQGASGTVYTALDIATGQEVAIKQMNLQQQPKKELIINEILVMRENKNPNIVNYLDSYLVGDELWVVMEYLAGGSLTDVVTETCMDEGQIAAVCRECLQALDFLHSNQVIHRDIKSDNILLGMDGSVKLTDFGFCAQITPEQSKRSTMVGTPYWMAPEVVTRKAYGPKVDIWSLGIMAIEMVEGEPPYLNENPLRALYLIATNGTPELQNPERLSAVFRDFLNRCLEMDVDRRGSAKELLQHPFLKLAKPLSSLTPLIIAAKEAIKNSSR
Serine/threonine-protein kinase PAK 5 (Homo sapiens), sequence (Q9P286 whole entry, looked up): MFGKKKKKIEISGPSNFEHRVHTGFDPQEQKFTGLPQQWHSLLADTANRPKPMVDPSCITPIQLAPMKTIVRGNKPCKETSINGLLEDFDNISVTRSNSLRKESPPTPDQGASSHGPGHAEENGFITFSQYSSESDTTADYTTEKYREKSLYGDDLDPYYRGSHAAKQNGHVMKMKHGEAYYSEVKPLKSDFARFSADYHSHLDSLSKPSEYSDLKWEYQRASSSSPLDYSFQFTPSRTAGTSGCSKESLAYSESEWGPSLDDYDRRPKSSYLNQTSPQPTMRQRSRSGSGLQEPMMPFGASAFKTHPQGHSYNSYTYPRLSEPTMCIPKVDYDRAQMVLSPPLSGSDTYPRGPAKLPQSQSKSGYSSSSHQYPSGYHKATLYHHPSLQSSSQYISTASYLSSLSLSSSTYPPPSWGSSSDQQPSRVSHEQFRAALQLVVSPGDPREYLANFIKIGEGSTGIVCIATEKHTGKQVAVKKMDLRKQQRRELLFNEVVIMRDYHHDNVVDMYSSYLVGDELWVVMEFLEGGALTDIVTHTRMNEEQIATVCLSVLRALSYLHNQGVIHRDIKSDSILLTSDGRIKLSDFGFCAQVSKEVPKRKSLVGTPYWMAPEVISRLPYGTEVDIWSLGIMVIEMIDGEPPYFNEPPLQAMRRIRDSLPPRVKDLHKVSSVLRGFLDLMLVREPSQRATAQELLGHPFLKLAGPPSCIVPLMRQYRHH

SMILES	inhibition [1] [%]	inhibition [2] [%]	inhibition [3] [%]	inhibition [4] [%]	inhibition [5] [%]	inhibition [6] [%]	inhibition (Homo sapiens) [%]
CS(=O)(=O)c1cccc(Nc2nccc(-c3sc(N4CCOCC4)nc3-c3cccc(NS(=O)(=O)c4c(F)cccc4F)c3)n2)c1	53.5	6.04	57.4	31.4	17.8	10.3	-3.18
COCCNC(=O)c1ccc2c(c1)nc(-c1cnc(-c3ccc(Cl)cc3)[nH]1)n2CCOC	18.5	11.4	17.5	2.55	14.8	8.42	3
CC(C)(C)c1cc(NC(=O)Nc2ccc(Oc3ccncc3)cc2)no1	20.6	7.39	91.5	14.2	14.3	71.4	-4.39
